Assay in all cases: NCI anticancer screen, dose series, 48 h
Assay [1] has as its system ACHN.
For assay [2], the system named is HCT-116.
The subject of assay [3] is Hs-578T.
Assay [4] relates to M14.
For assay [5], the system named is MDA-MB-231.
The test system of assay [6] is Malme-3M.
For assay [7], the system named is NCI-H23.
Assay [8] deals with NCI-H460.
Assay [9] has as its system NCI-H522.
Assay [10] deals with OVCAR-3.
For assay [11], the system named is SK-MEL-2.
In assay [12] the test system is SK-MEL-5.
For assay [13], the system named is SNB-75.
In assay [14] the test system is SR.
In assay [15] the test system is SW-620.
Assay [16] concerns T47D.
Assay [17] deals with TK-10.
In assay [18] the test system is U-251.
The test system of assay [19] is HCC 2998.

SMILES strings stand for the structures.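 Each compound was tested at five concentrations against cells in 96-well plates for 48 hours. Here, GI50 denotes the concentration required for 50% inhibition of growth.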 Calls of active or inactive are those of the source. Cut-off read from the data, not from the text of the source: active = GI50 up to about 1.1 µM and inactive = higher.

On to `Nc1cccc(OCc2nc(N)nc(N)c2-c2ccc(Cl)cc2)c1`, for which the GI50 in assay [1] is 44.3 µM (inactive); in assay [2], 44.7 µM (inactive); in assay [3], 62.2 µM (inactive); in assay [4] it was 60.8 µM (inactive); in assay [5], > 100 µM (inactive); in [6], > 100 µM (inactive). The GI50 is 43.2 µM (inactive) in assay [7]; 32.9 µM (inactive) in assay [8]; 57.5 µM (inactive) in [9]; > 100 µM (inactive) in assay [10]; > 100 µM (inactive) in [11]; 26.9 µM (inactive) in assay [12]. Moreover, the GI50 in assay [13] is 32.2 µM (inactive); in assay [14], 36.7 µM (inactive); in [15], 50.6 µM (inactive); in assay [16], 35.8 µM (inactive); in assay [17], 31.5 µM (inactive); in assay [18] it was 64.9 µM (inactive).
For `COc1ccc2c(c1)C(=O)[C@@](Nc1ccc(C=O)cc1)(OC)[C@@](OC)(c1ccc([N+](=O)[O-])cc1)O2`, the GI50 in [1], in assay [19], in [2], in assay [3], in [4] and in assay [5] was > 10 µM (inactive) in each case. For the same compound, the GI50 in assay [6], in [7], in [8], in assay [10], in assay [11] and in [12] was > 10 µM (inactive) throughout. Also, the GI50 in assay [13] was 3.91 µM (inactive); in assay [14], > 10 µM (inactive); in [15], > 10 µM (inactive); in [16], 5.96 µM (inactive); in assay [17], > 10 µM (inactive); in assay [18], > 10 µM (inactive).
For `CCC(O)CC1OC2(CCC1C)CC1OC(=O)/C=C\C(C)(O)C(O)C(C)C(O)C(OC3CC(OC)C(O)C(C)O3)C(O)C(C)(O)CCC/C=C/C3CC(C)COC3(O)CC(O2)C1C` (configuration not stated), the GI50 was 7.24 µM (inactive) in [1]; 15.7 µM (inactive) in assay [19]; 5.08 µM (inactive) in assay [2]; 12.1 µM (inactive) in [3]; 6.97 µM (inactive) in assay [4]; 12 µM (inactive) in assay [5]. Further, the GI50 is 10.7 µM (inactive) in assay [6]; < 0.0176 µM (active) in assay [7]; 6.62 µM (inactive) in assay [8]; 0.585 µM (active) in assay [10]; 4.98 µM (inactive) in assay [11]; < 0.01 µM (active) in [12]. The GI50 was 2.37 µM (inactive) in [13]; 19.9 µM (inactive) in [14]; 14.8 µM (inactive) in assay [15]; < 0.0107 µM (active) in [16]; 1.6 µM (inactive) in assay [17]; < 0.01 µM (active) in [18].
`NS(=O)(=O)c1cc(C(=O)O)c(O)c2ccccc12`: the GI50 in assay [1] was > 100 µM (inactive); in assay [2] it was > 100 µM (inactive); in assay [3], 49.7 µM (inactive); in assay [4], > 100 µM (inactive); in [5], > 100 µM (inactive); in assay [6] it was 92 µM (inactive). Moreover, the GI50 in assay [7], in assay [8], in [9], in assay [10], in [11] and in assay [12] was > 100 µM (inactive) throughout. The GI50 in assay [13] was 82.6 µM (inactive); in [14], > 100 µM (inactive); in [15], > 100 µM (inactive); in assay [16], > 100 µM (inactive); in [17], > 100 µM (inactive); in assay [18], > 100 µM (inactive).

The values are drawn from ChEMBL document CHEMBL1201862, “PubChem BioAssay data set” (2004).
